In test [1] the target is AliC (residues 24–655), oligopeptide-binding lipoprotein of the Ami system, without the lipobox segment (Streptococcus pneumoniae). As to the kind of experiment: AUC; sedimentation velocity, 20 mM Tris–HCl pH 7.5, 20°C, 4.1 μM protein, c(s) distribution (SEDFIT).
The target is the same in test [2]. The test is described as follows: crystal structure; AliC in the open conformation, no peptide; 0.1 M Bis-Tris pH 6.5, 25% PEG3350; 2.38 Å; domain-swapped dimer.
Test [3] has as its system AliD. Particulars: peptide derived from Prevotella species; cited from earlier work.
Test [4] deals with AliD. The conditions noted are these: peptide derived from Prevotella species; cited from earlier work. The source holds these as a separate data set.
For test [5], the system named is AliD. The test is described as follows: Microscale thermophoresis (MST) peptide binding to AliD. The arrangement: species or system Streptococcus pneumoniae. Particulars: 20 nM RED-NHS-labeled AliD, peptide 7.63x10^-6–0.125 mM in PBS, 25°C. How it is done: To investigate the conformational changes occurring in the Ami permease OBPs upon ligand binding, we synthesized specific peptides (Tables 1 and S2) previously reported to be substrates of these proteins. […] To verify specific binding of peptides to OBPs, binding of peptide 1 (FPPQSV), which is the natural substrate of AliD, and peptide 2 (AIQSEKARKHN) was measured to AliD by microscale thermophoresis (MST) (see methods). […] The crystal structure of the AliD:peptide 1 complex was obtained by co-crystallization (see Materials and Methods) at 2.18 Å resolution (Fig 3A).
Binding of peptides to heterologously expressed AliD was measured by microscale thermophoresis (MST). […] Analyzed peptides (1: FPPQSV and 2: AIQSEKARKHN) were diluted in PBS. […] Samples were loaded into standard capillaries (NanoTemper Technologies) and measured using the Monolith NT.115 machine (NanoTemper Technologies). […] Data of three independently conducted experiments were analyzed using the Mo.Affinity Analysis software version 2.3 from NanoTemper Technologies.
Supplementary file ppat.1011883.s017.tif: S6 Fig Peptide 1 structure in the AliD:peptide 1 complex. (A) Binding of peptide 1 and 2 to heterologously expressed AliD as analyzed by microscale thermophoresis (MST). […] Samples were measured using the Monolith NT.115 (NanoTemper Technologies) at 40% LED power and medium MST power at 25° C. […]
In general terms: MST reads how a fluorescent partner responds to local heating, with and without ligand.

A further test has as its system AliB. The conditions noted are these: S2 Table; previously reported to bind AliB; ref 10 (table adapted from Nasher et al; 2018); cited from earlier work. The source says:
Supplement ppat.1011883.s002.docx, table 1 | column: OBP

For test [6], the target named is AliD (residues 28–652), oligopeptide-binding lipoprotein of the Ami system, without the lipobox segment (Streptococcus pneumoniae). As to the kind of experiment: MST; 20 nM RED-NHS-labelled AliD and unlabelled peptides (7.63x10^-6–0.125 mM) both in solution, PBS, 25°C, 40% LED power, medium MST power, Monolith NT.115; three independent experiments.

In general, stoichiometry N refers to the number of molecules, sites or subunits per partner or assembly. In general, Kd refers to the equilibrium constant for the complex coming apart.

As for “AliC (residues 24–655), oligopeptide-binding lipoprotein of the Ami system, without the lipobox segment (natural protein)”, the stoichiometry N in test [1] and in test [2] was 2 each time.

Take “FPPQSV [Peptide 1, FPPQSV; Ribosome-associated GTPase EngA (Prevotella species)]”: the “Colonization when bound by AliD” value in the test with AliD [3] is on record as “enhanced colonization”. Besides, in the test on AliD [4], the “Gene expression change when bound by AliD” value is on record as “significant changes in gene expression”. Also, the “Binding to AliD (in words)” value with AliD [5] is reported as “concentration dependent binding”.

Take “PIVGGHEGAGV [Peptide 3, …; NDMA-dependent alcohol dehydrogenase (multispecies)]”: the “Corresponding OBP” value in the test with AliB is listed as “AliB”.

Peptide 1 (FPPQSV): the Kd in test [6] turned out to be 3.44 µM.

As to “VMVKGPGPGREST [Peptide 4, …; 30S ribosomal protein S11 (multispecies)]”, in the test on AliB, the “Corresponding OBP” value was “AliB”.

B1: Peptide 2 (…) (peptide)
peptide: AIQSEKARKHN
In test [6], B1 displayed an equilibrium dissociation constant (Kd) of 14.4 µM. This lies in the double-digit micromolar range.

Values taken from article PMC11192437, “Molecular and structural basis of oligopeptide recognition by the Ami transporter system in pneumococci” (PLOS Pathogens, 2024).
